SMILES strings stand for the structures.

In assay [1] the test system is Pseudomonas syringae pv. tomato. The assay is described as follows: in vivo preventive test on Pseudomonas syringae pv. tomato (tomatoes). Conditions: sprayed one week before inoculation, evaluated 1 week after inoculation. The protocol:
When the percentage of inhibition observed for the combination is greater than E, there is a synergistic effect. • Solvent: deionized water • tested compounds: […] To test for preventive activity, young plants are sprayed with the prepared compounds at three different rates of application. One week after application, the plants are inoculated with an aqueous suspension of Pseudomonas syringae pv. tomato. Inoculated plants are placed in a greenhouse chamber at 25° C. at a relative atmospheric humidity of 90%.

Another assay relates to Potato. The assay is described as follows: potato field seed/soil treatment test: plant and stem number, tuber weight, tuber grading. Conditions: T2: dose 12/100 kg seed, ST.
The test system of another assay is Streptomyces scabies. The assay is described as follows: in vivo preventive (seed growth test) test on Streptomyces scabies (potato), scab efficacy at harvest. Conditions: T2: dose 12/100 kg seed, ST, natural field conditions.

Description for Streptomyces scabies: • Solvent: water • Tested compounds: Isotianil (FS200 formulation) at 30/24/12 ml/100 KG Potato Seed • Penflufen (Emesto FS240 formulation) at 10 ml/100 KG Potato Seed • Serenade ASO (Bacillus subtilis QST 713 strain/SC/1.34%) 5 Litres/ha (200 ml/area sown under 100 KG Seed)
To test for seed (tuber) treatment activity mixtures of Isotianil FS200 and Serenade ASO SC in combination with an optional further fungicide, ie Potato tubers are selected having reasonable Streptomyces scabies infestation. Seed was treated by spray on the tubers with hand knapsack sprayer using total volume of slurry 1500 ml/100 Kg Seed. Seed treatment was done with Isotianil FS 200 alone and in tank-mix with Penflufen.
Serenade ASO SC 1.34% @ 5000 ml/ha of formulated product was sprayed in the furrows just before the sowing of seeds. 100 KG seeds are sown on an area of 400 m^2 and Serenade ASO @ 200 ml formulated product was used in this test. Seed treated with Isotianil and optional Penflufen as method described above was used in combination with soil application of Serenade ASO in furrows before sowing. This study was conducted in natural field conditions chamber and observations for Streptomyces scabies infestation on potato was taken at the time of harvest.
The test is evaluated at harvest of potato crop.

As to `N#Cc1ccccc1NC(=O)c1snc(Cl)c1Cl` [(A.2) Isotianil, isotianil], the “Efficacy in % found” value in assay [1] (application rate 50 g a.i.) is recorded as 6%. The “Efficacy in % found” value in assay [1] (application rate 100 g a.i.) is on record as 0%. In addition, in assay [1] (application rate 200 g a.i.), the “Efficacy in % found” value is on record as 0%. Further, in the assay with Potato (potato tubers at harvest), the “% age Grading Large” value is 34%, the “% age Grading Small” value is listed as 29% and the “% age Grading medium” value is 37%. Besides, in the assay with Potato (potato, field), the “% age increase/dicrease over conrol, No. of Plants/5 meter” value is recorded as 3%; the “% age increase/dicrease over conrol, No. of stems/meter” value came out at 7%; the “% age increase/dicrease over conrol, Weight of tuber/5 meter” value was 11%. Also, in the assay on Streptomyces scabies, the “% age Efficacy Scab” value came out at 68%.

The record behind these values is patent publication US10258040B2, “Use of combinations comprising host defense inducers and biological control agents for controlling bacterial harmful organisms in useful plants” (Bayer CropScience Aktiengesellschaft, priority 2013, dated 2019).
